Laboratory results reported in ChEMBL document CHEMBL1138538, “Design, synthesis, and evaluation of 10-N-substituted acridones as novel chemosensitizers in Plasmodium falciparum” (Antimicrob Agents Chemother, 2007).

Target: Sodium-dependent serotonin transporter (Homo sapiens, UniProt P31645)
Assay: not given
Format: cell-based, HEK293
Conditions: not given

Chain of Sodium-dependent serotonin transporter (P31645 whole entry): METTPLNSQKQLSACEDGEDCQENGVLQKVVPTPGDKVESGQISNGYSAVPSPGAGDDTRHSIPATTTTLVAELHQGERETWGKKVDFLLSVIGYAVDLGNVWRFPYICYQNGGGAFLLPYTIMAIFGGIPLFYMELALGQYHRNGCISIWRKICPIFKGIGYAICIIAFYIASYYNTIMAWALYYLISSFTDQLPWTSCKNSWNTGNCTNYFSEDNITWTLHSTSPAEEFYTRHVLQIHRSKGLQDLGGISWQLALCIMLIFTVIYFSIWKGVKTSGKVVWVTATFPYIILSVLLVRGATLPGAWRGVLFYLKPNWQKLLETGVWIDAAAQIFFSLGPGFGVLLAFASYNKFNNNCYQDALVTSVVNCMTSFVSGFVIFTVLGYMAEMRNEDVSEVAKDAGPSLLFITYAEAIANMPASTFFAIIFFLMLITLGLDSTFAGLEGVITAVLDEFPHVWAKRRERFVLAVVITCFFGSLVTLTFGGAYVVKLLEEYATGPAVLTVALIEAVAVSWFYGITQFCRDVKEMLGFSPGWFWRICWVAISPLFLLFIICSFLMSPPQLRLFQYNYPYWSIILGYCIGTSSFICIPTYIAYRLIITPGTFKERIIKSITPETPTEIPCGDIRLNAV

Going from `CCN(CC)CCCCn1c2ccccc2c(=O)c2ccccc21` to `CCN(CC)CCCCCn1c2ccccc2c(=O)c2ccccc21`, the IC50 falls from over 10 µM to 7.8 µM.

Compared with `CCN(CC)CCCCCCn1c2ccccc2c(=O)c2ccccc21`, `CCN(CC)CCCn1c2ccccc2c(=O)c2ccccc21` is higher in IC50: 3.5 µM for the first, over 10 µM for the second. The first is the more potent here.

For `CCN(CC)CCn1c2ccccc2c(=O)c2ccccc21`, the IC50 was over 10 µM.

System: Plasmodium falciparum
Assay: Antimalarial activity after 72 hrs against chloroquine-resistant transporter 106/1'76I mutant Plasmodium falciparum infected in human erythrocytes by SYBR green assay
Format: functional, organism-based
Conditions: not given

`CCN(CC)CCCCCCn1c2ccccc2c(=O)c2ccccc21` gave an IC50 of 3.66 µM.

System: Plasmodium falciparum
Assay: Chemosensitizing activity after 72 hrs against chloroquine-resistant Plasmodium falciparum Dd2 infected human erythrocytes as IC50 ratio desethylchloroquine +/- 500 nM by SYBR green assay
Format: functional
Conditions: not given

In the case of `CCN(CC)CCCCCCn1c2ccccc2c(=O)c2ccccc21`, the “Ratio IC50” value is reported as 1.01.

System: Plasmodium falciparum
Assay: Chemosensitizing activity after 72 hrs against chloroquine-resistant Plasmodium falciparum Dd2 infected human erythrocytes as IC50 ratio quinine +/- 500 nM by SYBR green assay
Format: functional
Conditions: not given

With `CCN(CC)CCCCCCn1c2ccccc2c(=O)c2ccccc21` the “Ratio IC50” value was 1.

System: Plasmodium falciparum
Assay: microbe, parasite or virus in culture
Conditions: D6, 72 h

First: CCN(CC)CCCCn1c2ccccc2c(=O)c2ccccc21
Second: CCN(CC)CCCCCn1c2ccccc2c(=O)c2ccccc21
The IC50 of the first is 2.1-fold higher: 7.6 µM for the first, 3.7 µM for the second. The second is the more potent here.

`CCN(CC)CCCCCCn1c2ccccc2c(=O)c2ccccc21` and `CCN(CC)CCCCCCCCn1c2ccccc2c(=O)c2ccccc21` are within 1.5-fold of each other in IC50: 3.2 µM for the first, 2.6 µM for the second.

`CCN(CC)CCCn1c2ccccc2c(=O)c2ccccc21` and `CCN(CC)CCn1c2ccccc2c(=O)c2ccccc21` are within 1.5-fold of each other in IC50: 8.1 µM for the first, 11.8 µM for the second.

Compared with `O=c1c2ccccc2n(CCCCCCCl)c2ccccc12`, `CN(C)CCC(c1ccc(Cl)cc1)c1ccccn1` (centres undefined) [CHLORPHENIRAMINE] is 47-fold higher in IC50: 1.3 µM for the first, 61.2 µM for the second. The first is the more potent here.

With `CCNCCCC(C)Nc1ccnc2cc(Cl)ccc12` (centres undefined) [DESETHYLCHLOROQUINE] the IC50 was 0.0182 µM.

System: Plasmodium falciparum
Assay: Chemosensitizing activity after 72 hrs against chloroquine-sensitive Plasmodium falciparum D6 infected human erythrocytes as IC50 ratio desethylchloroquine +/- 500 nM drug by SYBR green assay
Format: functional
Conditions: not given

In the case of `CCN(CC)CCCCCCn1c2ccccc2c(=O)c2ccccc21`, the “Ratio IC50” value is reported as 0.17.

System: not listed separately
Assay: cells
Conditions: Mus musculus, C57BL/6J, Splenocyte, 72 h
Description: Cytotoxicity against C57BL/6J mouse splenocytes after 72 hrs by alamar blue assay

`CCN(CC)CCCCn1c2ccccc2c(=O)c2ccccc21` and `CCN(CC)CCCCCn1c2ccccc2c(=O)c2ccccc21` are within 1.5-fold of each other in IC50: 34.5 µM for the first, 30.5 µM for the second.

`CCN(CC)CCCCCCn1c2ccccc2c(=O)c2ccccc21` and `CCN(CC)CCCCCCCCn1c2ccccc2c(=O)c2ccccc21` are within 1.5-fold of each other in IC50: 26.4 µM for the first, 17.6 µM for the second.

`CCN(CC)CCCn1c2ccccc2c(=O)c2ccccc21` and `CCN(CC)CCn1c2ccccc2c(=O)c2ccccc21` are within 1.5-fold of each other in IC50: 22.5 µM for the first, 28.5 µM for the second.

Going from `O=c1c2ccccc2n(CCCCCCCl)c2ccccc12` to `CN(C)CCC(c1ccc(Cl)cc1)c1ccccn1` (centres undefined) [CHLORPHENIRAMINE], the IC50 falls from 59.5 µM to 33.4 µM (1.8-fold). The second is the more potent here.

Target: Histamine H1 receptor (Homo sapiens, UniProt P35367)
Sequence (P35367 whole entry): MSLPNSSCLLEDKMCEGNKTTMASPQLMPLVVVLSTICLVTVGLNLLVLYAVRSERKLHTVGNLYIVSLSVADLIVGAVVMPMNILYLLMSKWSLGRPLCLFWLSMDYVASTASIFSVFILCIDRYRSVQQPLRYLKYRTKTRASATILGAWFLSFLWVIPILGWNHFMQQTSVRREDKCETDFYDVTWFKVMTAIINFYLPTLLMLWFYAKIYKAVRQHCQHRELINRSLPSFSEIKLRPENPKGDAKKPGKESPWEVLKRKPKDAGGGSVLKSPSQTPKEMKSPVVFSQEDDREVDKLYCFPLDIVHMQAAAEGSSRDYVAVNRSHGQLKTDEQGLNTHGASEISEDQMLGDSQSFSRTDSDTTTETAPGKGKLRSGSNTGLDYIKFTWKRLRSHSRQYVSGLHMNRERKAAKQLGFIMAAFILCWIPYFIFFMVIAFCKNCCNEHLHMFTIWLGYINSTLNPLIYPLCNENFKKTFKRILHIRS
Assay: biochemical
Format: cell-based, CHO
Conditions: not given

In the case of `CCN(CC)CCCCCCn1c2ccccc2c(=O)c2ccccc21`, the IC50 is reported as 3.6 µM.

System: Plasmodium falciparum
Assay: microbe, parasite or virus in culture
Conditions: Dd2, 72 h

Going from `CCN(CC)CCCCn1c2ccccc2c(=O)c2ccccc21` to `CCN(CC)CCCCCn1c2ccccc2c(=O)c2ccccc21`, the IC50 falls from 10.2 µM to 5.8 µM (1.8-fold).

First: CCN(CC)CCCCCCn1c2ccccc2c(=O)c2ccccc21
Second: CCN(CC)CCCCCCCCn1c2ccccc2c(=O)c2ccccc21
The IC50 of the first is 1.5-fold higher: 2.7 µM for the first, 1.8 µM for the second. The second is the more potent here.

Compared with `CCN(CC)CCCn1c2ccccc2c(=O)c2ccccc21`, `CCN(CC)CCn1c2ccccc2c(=O)c2ccccc21` is 4.7-fold higher in IC50: 1.6 µM for the first, 7.5 µM for the second. The first is the more potent here.

First: O=c1c2ccccc2n(CCCCCCCl)c2ccccc12
Second: CN(C)CCC(c1ccc(Cl)cc1)c1ccccn1 (centres undefined) [CHLORPHENIRAMINE]
The IC50 of the first is 1.5-fold lower: 2.6 µM for the first, 3.9 µM for the second.

With `CCNCCCC(C)Nc1ccnc2cc(Cl)ccc12` (centres undefined) [DESETHYLCHLOROQUINE] the IC50 was 0.372 µM.

Target: Sodium-dependent noradrenaline transporter (Homo sapiens, UniProt P23975)
Sequence (P23975 whole entry): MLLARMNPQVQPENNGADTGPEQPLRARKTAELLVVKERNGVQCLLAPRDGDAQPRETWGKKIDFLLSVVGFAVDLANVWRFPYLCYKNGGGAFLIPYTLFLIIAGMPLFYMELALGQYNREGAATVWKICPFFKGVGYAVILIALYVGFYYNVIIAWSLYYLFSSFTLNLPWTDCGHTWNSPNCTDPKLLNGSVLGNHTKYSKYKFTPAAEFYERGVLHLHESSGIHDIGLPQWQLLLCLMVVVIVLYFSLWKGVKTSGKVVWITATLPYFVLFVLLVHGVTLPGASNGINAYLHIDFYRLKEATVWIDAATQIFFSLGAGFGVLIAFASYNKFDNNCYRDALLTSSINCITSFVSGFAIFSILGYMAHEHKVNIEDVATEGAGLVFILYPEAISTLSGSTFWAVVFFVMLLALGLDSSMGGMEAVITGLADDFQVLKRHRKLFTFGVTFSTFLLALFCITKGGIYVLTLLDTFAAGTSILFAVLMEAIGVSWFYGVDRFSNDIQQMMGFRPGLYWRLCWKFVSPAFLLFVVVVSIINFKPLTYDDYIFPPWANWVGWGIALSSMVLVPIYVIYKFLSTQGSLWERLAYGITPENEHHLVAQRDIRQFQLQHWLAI
Assay: not given
Conditions: not given

Compared with `CCN(CC)CCCCn1c2ccccc2c(=O)c2ccccc21`, `CCN(CC)CCCCCn1c2ccccc2c(=O)c2ccccc21` is lower in IC50: over 10 µM for the first, 9.1 µM for the second.

`CCN(CC)CCCCCCn1c2ccccc2c(=O)c2ccccc21` and `CCN(CC)CCCn1c2ccccc2c(=O)c2ccccc21` cannot be ordered by IC50: over 10 µM for the first, over 10 µM for the second.

For `CCN(CC)CCn1c2ccccc2c(=O)c2ccccc21`, the IC50 was over 10 µM.

Target: Sodium-dependent dopamine transporter (Homo sapiens, UniProt Q01959)
Sequence (Q01959 whole entry): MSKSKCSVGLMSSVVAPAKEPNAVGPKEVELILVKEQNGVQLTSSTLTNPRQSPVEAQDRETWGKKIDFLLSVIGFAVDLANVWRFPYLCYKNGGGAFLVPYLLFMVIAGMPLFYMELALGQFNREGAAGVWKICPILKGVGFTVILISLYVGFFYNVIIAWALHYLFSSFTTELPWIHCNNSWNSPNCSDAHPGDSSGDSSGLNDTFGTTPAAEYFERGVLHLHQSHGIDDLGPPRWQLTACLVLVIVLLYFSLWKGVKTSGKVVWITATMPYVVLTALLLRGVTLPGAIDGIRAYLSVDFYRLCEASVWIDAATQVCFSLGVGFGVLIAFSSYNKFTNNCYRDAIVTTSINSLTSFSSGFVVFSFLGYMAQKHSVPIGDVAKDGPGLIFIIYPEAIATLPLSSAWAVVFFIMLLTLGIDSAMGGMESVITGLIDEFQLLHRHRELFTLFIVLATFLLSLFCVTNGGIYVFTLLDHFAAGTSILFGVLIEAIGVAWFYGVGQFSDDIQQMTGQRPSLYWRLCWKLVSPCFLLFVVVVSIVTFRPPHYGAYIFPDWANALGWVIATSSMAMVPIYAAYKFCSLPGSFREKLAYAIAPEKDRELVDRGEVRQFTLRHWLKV
Assay: not given
Conditions: not given

`CCN(CC)CCCCn1c2ccccc2c(=O)c2ccccc21` and `CCN(CC)CCCCCn1c2ccccc2c(=O)c2ccccc21` cannot be ordered by IC50: over 10 µM for the first, over 10 µM for the second.

`CCN(CC)CCCCCCn1c2ccccc2c(=O)c2ccccc21` and `CCN(CC)CCCn1c2ccccc2c(=O)c2ccccc21` cannot be ordered by IC50: over 10 µM for the first, over 10 µM for the second.

With `CCN(CC)CCn1c2ccccc2c(=O)c2ccccc21` the IC50 was over 10 µM.

System: Plasmodium falciparum
Assay: Chemosensitizing activity after 72 hrs against chloroquine-sensitive Plasmodium falciparum D6 infected human erythrocytes as IC50 ratio quinine +/- 500 nM by SYBR green assay
Format: functional
Conditions: not given

With `CCN(CC)CCCCCCn1c2ccccc2c(=O)c2ccccc21` the “Ratio IC50” value was 0.3.

System: Plasmodium falciparum
Assay: Antimalarial activity after 72 hrs against chloroquine-resistant transporter 106/1'76N mutant Plasmodium falciparum infected human erythrocytes by SYBR green assay
Format: functional, organism-based
Conditions: not given

In the case of `CCN(CC)CCCCCCn1c2ccccc2c(=O)c2ccccc21`, the IC50 is reported as 0.596 µM.

System: Plasmodium falciparum
Assay: Antimalarial activity after 72 hrs against chloroquine-resistant transporter 106/1'76T mutant Plasmodium falciparum infected human erythrocytes by SYBR green assay
Format: functional, organism-based
Conditions: not given

In the case of `CCN(CC)CCCCCCn1c2ccccc2c(=O)c2ccccc21`, the IC50 is reported as 4.5 µM.
